One experiment has as its system LPS-treated NSCs. The experiment can be described thus: TUNEL assay of LPS-induced apoptosis in NSCs. Type of experiment: cell-based, rat. To be noted: IM treatment vs without IM. As to the method:
An avidin-biotin complex method was used for the immunohistochemical staining in the differentiated NSCs. Following washes with the 3% hydrogen peroxide, sodium azide and antigens were retrieved using a microwave. Each slide was then treated with antibodies for Bcl-2 (Upstate Biotechnology, Waltham, Mass., USA), Nestin (Chemicon, Temecula, Calif., USA), 4′, 6-diamidino-2-phenylindole (DAPI; Chemicon, Temecula, Calif., USA) and MAP2 (Chemicon, Temecula, Calif., USA). Immunoreactive signals were detected with a mixture of biotinylated rabbit anti-mouse IgG and Fluoresave (Calbiochem, La Jolla, Calif., USA) under confocal microscopy (Olympus, FV300). Each individual sample was analyzed in triplicate. Furthermore, apoptotic cells were identified by the TUNEL method (In Situ Cell Death Detection Kit, POD, Roche Boehringer Mannheim Corp., IN, USA) as described in Chiou et al., J. Immunol. 167, 4098-4103, 2001. Briefly, the cells with cover slips were washed with 1× phosphate buffered saline (PBS), fixed with 4% of paraformaldehyde for 10 minutes, permeabilized with 0.1% of triton X-100 for 5 mins, and incubated with the TUNEL reagent provided for 1 hour. […] The percentage of TUNEL-positive cells was measured by the average of 6 different areas as compared to the total cell number in the same section slide (under a×200 power field of a light microscope).

For a further experiment, the system named is NSCs. The experiment can be described thus: Real-time RT-PCR mRNA expression in IM-treated NSCs. The format is cell-based, rat. As to the method:
For real-time RT-PCR, the total RNA was extracted using the RNAeasy kit (Qiagen, Valencia, Calif., USA). Briefly, total RNA (1 μg) of each sample was reverse transcribed in 20 μL using 0.5 μg of oligo dT and 200 U Superscript II RT (Invitrogen, Carlsbad, Calif., USA). The amplification was carried out in a total volume of 20 μl containing 0.5 μM of each primer, 4 mM MgCl2, 2 μl LightCycler™ FastStart DNA Master SYBR green I (Roche Molecular Systems, Alameda, Calif., USA) and 2 μl of 1:10 diluted cDNA. The quantification in the unknown samples was performed with LightCycler Relative Quantification Software version 3.3 (Roche Molecular Systems, Alameda, Calif., USA). In each experiment, the GAPDH housekeeping gene was amplified as a reference standard. GAPDH primers were designed: GAPDH(f): […] (nt 414-434, GenBank accession no. BC059110.1), GAPDH(r): ATGACCTTGCCCACA GCCTT (nt 713-733). Other target gene primers were as follows: BDNF(f) 5′-CCAAGGCAGGTTCAA GAG-3′. BDNF(r): 5′-CCAGCAGAAAGAGAAGAGG-3′ (nt 146-331, GenBank accession no.NM_170735). Bcl-2(f): […] (nt 527-550, GenBank accession no. NM_016993.1), Bcl-2(r): GTTGTCCA CCAGGGGTGACAT (nt 721-742). Bax(f): GTGGT TGCCCTCTTCTACTTTGC (nt 328-351, GenBank accession no. NM_017059.1), Bax(r): GAGGACT CCAGCCACAAAGATG (nt 522-544). MAP2(f): GTTTACATTGTTCAGGAC CTCATGG (nt 316-341); MAP2(r): TCGGTAAGAAAGCC AGTGTGGT (nt 551-573. GenBank accession no. NM_U12008.1). Reactions were prepared in duplicate and heated to 95° C. for 10 minutes followed by 40 cycles of denaturation at 95° C. for 10 seconds, annealing at 55° C. for 5 seconds, and extension at 72° C. for 20 seconds. All PCR reactions were performed in duplicate. Standard curves (cycle threshold values versus template concentration) were prepared for each target gene and for the endogenous reference (GAPDH) in each sample. To confirm the specificity of the PCR reaction, PCR products were electrophoresed on a 1.2% agarose gel.
For orientation: Real-time PCR tracks product formation cycle by cycle.

The mark [1] stands for this setting: Day 3, Day 5 and Day 7 of IM-treated NSCs.
[2] abbreviates: Day 5 and Day 7 IM-treated vs non IM-treated NSCs, p<0.05.

One compound from US20090105562A1, “SYSTEM AND METHODS FOR SCREENING OR ANALYZING TARGETS” (TAIPEI VETERANS GENERAL HOSPITAL, priority 2007, published 2009) can be followed below.

With `CN(C)CCCN1c2ccccc2CCc2ccccc21` [IM, imipramine], in the experiment with LPS-treated NSCs, the “LPS-induced apoptosis in NSCs (TUNEL assay)” value is listed as “protected against LPS-induced apoptosis”. The “level of Bcl-2 mRNA” value with NSCs (1, 3 and 5 μM IM, Day 7, vs Day 7 non-IM-treated NSCs) is listed as “significantly increased”. In the experiment on NSCs (setting [1]), the “expression of Bad” value is given as “not activated” and the “expression of Bax” value is recorded as “not activated”. In the experiment with NSCs (setting [2]), the “mRNA level of Bcl-2” value was “significantly increased” and the “mRNA level of MAP2” value is “significantly increased”.
